In patent publication US10669272B2, “Substituted naphthyridinone compounds useful as T cell activators” (BRISTOL-MYERS SQUIBB COMPANY, priority 2018, dated 2020):
Like-named read-outs stand apart in the source and are kept apart here.

Key:
human DGKα = target: T1, human DGKα (Homo sapiens, UniProt P23743); assay: DGKα LIPGLO assay (extruded liposome substrate), in vitro DGK inhibition; type: biochemical; conditions: read-out: DGKa LIPGLO IC50
T1 construct: TVMV protease cleavage site (C); Hexa-His (C); made in house; host or cells: Sf9 insect cells (baculovirus, Bac-to-Bac)
T1 sequence (P23743 with tags, fused parts or gaps): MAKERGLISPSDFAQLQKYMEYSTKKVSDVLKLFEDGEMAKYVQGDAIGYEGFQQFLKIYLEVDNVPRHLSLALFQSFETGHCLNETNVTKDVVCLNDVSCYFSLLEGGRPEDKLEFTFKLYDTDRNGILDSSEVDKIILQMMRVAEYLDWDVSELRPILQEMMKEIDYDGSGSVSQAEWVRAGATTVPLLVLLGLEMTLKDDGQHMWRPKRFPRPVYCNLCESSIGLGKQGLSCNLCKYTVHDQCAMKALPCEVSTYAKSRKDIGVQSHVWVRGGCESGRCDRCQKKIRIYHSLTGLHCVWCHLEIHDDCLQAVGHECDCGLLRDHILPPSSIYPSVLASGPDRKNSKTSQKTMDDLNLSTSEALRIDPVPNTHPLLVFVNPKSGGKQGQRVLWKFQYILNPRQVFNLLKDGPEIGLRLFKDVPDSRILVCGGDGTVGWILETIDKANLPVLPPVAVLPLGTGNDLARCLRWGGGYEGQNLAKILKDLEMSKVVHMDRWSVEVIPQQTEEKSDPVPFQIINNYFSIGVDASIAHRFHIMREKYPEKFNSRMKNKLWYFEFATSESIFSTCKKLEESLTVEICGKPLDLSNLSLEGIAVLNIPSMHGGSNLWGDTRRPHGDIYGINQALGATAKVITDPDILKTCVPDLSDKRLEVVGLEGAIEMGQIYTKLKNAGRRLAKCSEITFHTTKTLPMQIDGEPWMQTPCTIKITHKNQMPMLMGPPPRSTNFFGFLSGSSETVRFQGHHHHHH

human DGKζ = target: T2, human DGKζ (Homo sapiens, UniProt Q13574); assay: DGKζ LIPGLO assay (extruded liposome substrate), in vitro DGK inhibition; type: biochemical; conditions: read-out: DGKz LIPGLO IC50
T2 construct: TVMV protease cleavage site (C); Hexa-His (C); made in house; host or cells: Sf9 insect cells (baculovirus, Bac-to-Bac)
T2 sequence (Q13574 with tags, fused parts or gaps isoform Q13574-4): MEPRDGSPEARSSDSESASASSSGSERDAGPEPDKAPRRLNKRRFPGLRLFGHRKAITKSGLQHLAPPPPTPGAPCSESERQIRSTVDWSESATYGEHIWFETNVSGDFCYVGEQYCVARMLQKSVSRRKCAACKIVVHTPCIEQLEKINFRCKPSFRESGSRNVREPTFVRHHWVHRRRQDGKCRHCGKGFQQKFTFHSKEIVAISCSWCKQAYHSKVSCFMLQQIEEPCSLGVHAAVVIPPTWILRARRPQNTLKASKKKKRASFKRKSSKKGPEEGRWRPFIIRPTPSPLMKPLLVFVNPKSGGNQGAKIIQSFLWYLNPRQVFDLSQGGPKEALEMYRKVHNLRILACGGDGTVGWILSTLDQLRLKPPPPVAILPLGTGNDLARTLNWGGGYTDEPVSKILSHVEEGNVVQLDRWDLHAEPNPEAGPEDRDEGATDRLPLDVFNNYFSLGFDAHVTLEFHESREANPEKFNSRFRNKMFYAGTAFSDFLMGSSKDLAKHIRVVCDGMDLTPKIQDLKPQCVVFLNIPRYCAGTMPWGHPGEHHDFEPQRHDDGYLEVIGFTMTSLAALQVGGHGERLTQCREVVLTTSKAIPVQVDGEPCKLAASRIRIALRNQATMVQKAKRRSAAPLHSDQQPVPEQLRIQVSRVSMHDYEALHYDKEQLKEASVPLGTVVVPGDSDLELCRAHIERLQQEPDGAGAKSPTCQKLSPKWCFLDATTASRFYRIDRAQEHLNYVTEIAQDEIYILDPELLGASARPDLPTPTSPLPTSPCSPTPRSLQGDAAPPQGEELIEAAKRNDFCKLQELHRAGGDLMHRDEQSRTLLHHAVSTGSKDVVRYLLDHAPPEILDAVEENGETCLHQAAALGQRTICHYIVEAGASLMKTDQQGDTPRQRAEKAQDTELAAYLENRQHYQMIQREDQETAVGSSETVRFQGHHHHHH

naïve human CD8 T cells = assay: Human CD8 T cells IFN-γ assay; type: cell-based; conditions: read-out: HuCD8 INFG Normalized EC50;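 further: Naïve human CD8 T cells stimulated with plate-bound anti-CD3 and soluble anti-CD28, IFN-γ in supernatant quantified by AlphaLISA and converted to pg/mL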
Human venous whole blood = assay: Human whole blood IFN-γ assay; type: cell-based; conditions: human whole blood, read-out: INFg Whole Blood Normalized Agonist EC50;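 further: blood from healthy donors exposed to compound for 1 h before stimulation with anti-CD3 and anti-CD28 at 1 µg/mL each, IFN-γ quantified in supernatant by AlphaLISA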
[1] = Homo sapiens, T-cell, 20 h, normalized to 3 μM reference compound with anti-CD3 plus anti-CD28 as 100% activation
[2] = Homo sapiens, 24 h, normalized to 3 μM reference compound with anti-CD3 plus anti-CD28 as 100% activation
[3] = normalized to 3 μM reference compound with anti-CD3 plus anti-CD28 as 100% activation
[4] = Homo sapiens, T-cell, 20 h, naïve human CD8 T cells, anti-CD3 plus anti-CD28, 3 μM reference compound = 100% activation
[5] = anti-CD3 plus anti-CD28, 24 hours, 3 μM reference compound = 100% activation
[6] = naïve human CD8 T cells, anti-CD3 plus anti-CD28, 3 μM reference compound = 100% activation
[7] = Homo sapiens, 24 h, anti-CD3 plus anti-CD28, 24 hours, 3 μM reference compound = 100% activation

| SMILES | IC50 (human DGKα; liposome (LIPGLO) assay) | IC50 (human DGKζ; liposome (LIPGLO) assay) | EC50 (naïve human CD8 T cells; [1]) | EC50 (Human venous whole blood; [2]) | also measured |
| --- | --- | --- | --- | --- | --- |
| C[C@@H]1CN(c2c(F)c(=O)n(C)c3ccc(C#N)nc23)CCN1C(c1ccc(Cl)cc1)c1ccc(Cl)cc1 [Example 34, (R)-8-(4-(bis(4-chlorophenyl)methyl)-3-methylpiperazin-1-yl)-7-fluoro-5-methyl-6-oxo-5,6-dihydro-1,5-naphthyridine-2-carbonitrile] | 690 nM | 510 nM | 180 nM | 1300 nM |  |
| C[C@@H]1CN(c2c(C#N)c(=O)n(C)c3ccc(C#N)nc23)CCN1C(c1cccc(Cl)c1)c1ccc(F)cn1 (stereo partly shown) [Example 927] |  |  |  |  | IC50 (human DGKα; DGKα liposome (LIPGLO) assay): 2600 nM; IC50 (human DGKζ; DGKζ liposome (LIPGLO) assay): 1600 nM; EC50 (naïve human CD8 T cells; [4]): 300 nM; EC50 (Human venous whole blood; [5]): 800 nM |
| C[C@@H]1CN(c2cc(=O)n(C)c3ccc(C#N)nc23)[C@@H](C)CN1Cc1c(F)cc(Cl)cc1F [Example 268, 8-[(2S,5R)-4-[(4-chloro-2,6-difluorophenyl)methyl]-2,5-dimethylpiperazin-1-yl]-5-methyl-6-oxo-5,6-dihydro-1,5-naphthyridine-2-carbonitrile] | 230 nM | 1200 nM | 54 nM | 1700 nM |  |
| Cc1ccc(C(c2cc(C)ccn2)N2C[C@H](C)N(c3cc(=O)n(C)c4ccc(C#N)nc34)C[C@H]2C)cc1 (single isomer, unassigned) [Example 460] | 30 nM | 38 nM | 27 nM |  | EC50 (Human venous whole blood; [3]): 520 nM |
| Cc1ccc(C(c2cccc(Cl)c2)N2C[C@H](C)N(c3cc(=O)n(C)c4ccc(C#N)nc34)C[C@H]2C)nc1 (single isomer, unassigned) [Example 369] | 2800 nM | 1400 nM |  | 480 nM | EC50 (naïve human CD8 T cells; [3]): 150 nM |
| C[C@@H]1CN(c2c(C#N)c(=O)n(C)c3ccc(C#N)nc23)CCN1C(c1ccc(F)cc1)c1ccc(Cl)cn1 (stereo partly shown) [Example 932] |  |  |  |  | IC50 (human DGKα; DGKα liposome (LIPGLO) assay): 150 nM; IC50 (human DGKζ; DGKζ liposome (LIPGLO) assay): 1200 nM; EC50 (naïve human CD8 T cells; [6]): 52 nM; EC50 (Human venous whole blood; [7]): 310 nM |
| C[C@@H]1CN(c2c(Cl)c(=O)n(C)c3ccc(C#N)nc23)[C@@H](C)CN1C(c1ccccc1)c1ccc(F)cc1 (single isomer, unassigned) [Example 218] | 9500 nM | > 250000 nM |  |  | EC50 (naïve human CD8 T cells; [3]): 10000 nM; EC50 (Human venous whole blood; [3]): 20000 nM |
| C[C@@H]1CN(c2cc(=O)n(C)c3ccc(C#N)nc23)[C@@H](C)CN1Cc1cccc(F)c1F [Example 286, 8-[(2S,5R)-4-[(2,3-difluorophenyl)methyl]-2,5-dimethylpiperazin-1-yl]-5-methyl-6-oxo-5,6-dihydro-1,5-naphthyridine-2-carbonitrile] | 1900 nM | 3200 nM | 370 nM | 2200 nM |  |
| C[C@@H]1CN(c2cc(=O)n(C)c3ccc(C#N)nc23)[C@@H](C)CN1C(c1cccc(F)c1)c1cccc(F)c1 [Example 270, 8-[(2S,5R)-4-[bis(3-fluorophenyl)methyl]-2,5-dimethylpiperazin-1-yl]-5-methyl-6-oxo-5,6-dihydro-1,5-naphthyridine-2-carbonitrile] | 3400 nM | 570 nM | 62 nM | 2000 nM |  |
| C[C@@H]1CN(c2cc(=O)n(C)c3ccc(C#N)nc23)[C@@H](C)CN1C(c1ccc(F)cc1)c1nc(C2CCOCC2)no1 (single isomer, unassigned) [Example 739] |  |  |  |  | IC50 (human DGKα; DGKα liposome (LIPGLO) assay): 130 nM; IC50 (human DGKζ; DGKζ liposome (LIPGLO) assay): 760 nM; EC50 (naïve human CD8 T cells; [4]): 52 nM; EC50 (Human venous whole blood; [7]): 190 nM |
| Cc1ccc(C(c2cncc(F)c2)N2C[C@H](C)N(c3cc(=O)n(C)c4ccc(C#N)nc34)C[C@H]2C)cc1 (single isomer, unassigned) [Example 391] | 3100 nM | 2400 nM | 81 nM |  | EC50 (Human venous whole blood; [3]): 890 nM |
| CC(c1c(F)cccc1F)N1C[C@H](C)N(c2cc(=O)n(C)c3ccc(C#N)nc23)C[C@H]1C (stereo partly drawn) [Example 256, 8-[(2S,5R)-4-[1-(2,6-difluorophenyl)ethyl]-2,5-dimethylpiperazin-1-yl]-5-methyl-6-oxo-5,6-dihydro-1,5-naphthyridine-2-carbonitrile] | 140 nM | 570 nM | 22 nM |  | EC50 (Human venous whole blood; Homo sapiens, normalized to 3 μM reference compound with anti-CD3 plus anti-CD28 as 100% activation): 650 nM |
| CCOC[C@@H]1CN(c2cc(=O)n(C)c3ccc(C#N)nc23)[C@@H](C)CN1C(c1ccc(F)cc1)c1ccc(F)cc1 [Example 1164, 8-((2S,5S)-4-(bis(4-fluorophenyl)methyl)-5-(ethoxymethyl)-2-methylpiperazin-1-yl)-5-methyl-6-oxo-5,6-dihydro-1,5-naphthyridine-2-carbonitrile] | 18000 nM | 670 nM | 17 nM | 340 nM |  |
| C[C@@H]1CN(c2cc(=O)n(C)c3ccc(C#N)nc23)[C@@H](C)CN1Cc1cccc(C(F)(F)F)n1 [Example 278, 8-[(2S,5R)-2,5-dimethyl-4-{[6-(trifluoromethyl)pyridin-2-yl]methyl}piperazin-1-yl]-5-methyl-6-oxo-5,6-dihydro-1,5-naphthyridine-2-carbonitrile] | 870 nM | 1500 nM | 2200 nM | 3200 nM |  |
| CC(c1c(F)cc(F)cc1F)N1C[C@H](C)N(c2cc(=O)n(C)c3ccc(C#N)nc23)C[C@H]1C (single isomer, unassigned) [Example 432] | 510 nM | 500 nM | 15 nM | 67 nM |  |
| Cc1ccc(C(c2ccc(C)cc2)N2C[C@H](C)N(c3c(C#N)c(=O)n(C)c4ccc(C#N)nc34)C[C@H]2C)cc1 [Example 806] |  |  |  |  | IC50 (human DGKα; DGKα liposome (LIPGLO) assay): 6300 nM; IC50 (human DGKζ; DGKζ liposome (LIPGLO) assay): 390 nM; EC50 (naïve human CD8 T cells; [4]): 18 nM; EC50 (Human venous whole blood; [7]): 690 nM |
| C[C@@H]1CN(c2c(C#N)c(=O)n(C)c3ccc(C#N)nc23)CCN1C(c1ccc(F)cc1)c1ccc(Cl)cn1 (stereo partly shown) [Example 933] |  |  |  |  | IC50 (human DGKα; DGKα liposome (LIPGLO) assay): 200 nM; IC50 (human DGKζ; DGKζ liposome (LIPGLO) assay): 1000 nM; EC50 (naïve human CD8 T cells; [6]): 350 nM; EC50 (Human venous whole blood; [5]): 550 nM |
| C[C@@H]1CN(c2cc(=O)n(C)c3ccc(C#N)nc23)[C@@H](C)CN1Cc1ccc(C#N)cc1F [Example 253, 8-[(2S,5R)-4-[(4-cyano-2-fluorophenyl)methyl]-2,5-dimethylpiperazin-1-yl]-5-methyl-6-oxo-5,6-dihydro-1,5-naphthyridine-2-carbonitrile] | 200 nM | 690 nM | 87 nM | 3000 nM |  |

Now from value to molecule, other results behind:

| IC50 (human DGKα; liposome (LIPGLO) assay) | IC50 (human DGKζ; liposome (LIPGLO) assay) | SMILES | EC50 (naïve human CD8 T cells; [1]) | EC50 (Human venous whole blood; [2]) | also measured |
| --- | --- | --- | --- | --- | --- |
| 240000 nM | 8700 nM | CCc1cc(F)ccc1C(c1ccc(F)cc1)N1C[C@H](C)N(c2cc(=O)n(C)c3ccc(OC)nc23)C[C@H]1C (single isomer, unassigned) [Example 234] |  |  | EC50 (naïve human CD8 T cells; [3]): 2500 nM; EC50 (Human venous whole blood; [3]): 20000 nM |
| 240000 nM | 11000 nM | CCc1ccccc1C(c1ccc(F)cc1)N1C[C@H](C)N(c2cc(=O)n(C)c3ccc(OC)nc23)C[C@H]1C (single isomer, unassigned) [Example 236] |  |  | EC50 (naïve human CD8 T cells; [3]): 10000 nM; EC50 (Human venous whole blood; [3]): 20000 nM |
| 240000 nM | 3700 nM | CCc1cc(F)ccc1C(c1ccc(Cl)cc1)N1C[C@H](C)N(c2cc(=O)n(C)c3ccc(OC)nc23)C[C@H]1C (single isomer, unassigned) [Example 231] |  | 20000 nM | EC50 (naïve human CD8 T cells; [3]): 1100 nM |
| 390 nM | 370 nM | CC[C@@H]1CN(c2cc(=O)n(C)c3ccc(C#N)nc23)[C@@H](C)CN1C(c1ccc(F)cc1)c1ccc(Cl)cc1 (stereo partly shown) [Example 1100] | 4.6 nM | 120 nM |  |
| 1300 nM | 3000 nM | C[C@@H]1CN(c2cc(=O)n(C)c3ccc(C#N)nc23)[C@@H](C)CN1C(c1ccc(Cl)cc1)c1cccc(F)n1 (single isomer, unassigned) [Example 196] |  |  | EC50 (naïve human CD8 T cells; [3]): 47 nM; EC50 (Human venous whole blood; [3]): 1400 nM |
| 1400 nM | 110 nM | Cc1cccc(C(c2ccc(Cl)cc2)N2C[C@H](C)N(c3cc(=O)n(C)c4ccc(C#N)nc34)C[C@H]2C)n1 (single isomer, unassigned) [Example 443] | 94 nM | 370 nM |  |
| 360 nM | 500 nM | C[C@@H]1CN(c2cc(=O)n(C)c3ccc(C#N)nc23)[C@@H](C)CN1C(c1ccc(Cl)cc1)c1ccccn1 (single isomer, unassigned) [Example 381] | 3.9 nM |  | EC50 (Human venous whole blood; [3]): 180 nM |
| 37000 nM | 670 nM | CCOc1ncccc1C(c1ccc(F)cc1)N1C[C@H](C)N(c2cc(=O)n(C)c3ccc(C#N)nc23)C[C@H]1C (single isomer, unassigned) [Example 205] |  | 990 nM | EC50 (naïve human CD8 T cells; [3]): 150 nM |
| > 250000 nM | 1000 nM | CCc1cc(F)ccc1C(c1ccc(F)cc1)N1C[C@H](C)N(c2cc(=O)n(C)c3ccc(C#N)nc23)C[C@H]1C (single isomer, unassigned) [Example 227] | 16 nM |  | EC50 (Human venous whole blood; [3]): 13000 nM |
| 200 nM | 550 nM | C[C@@H]1CN(c2cc(=O)n(C)c3ccc(C#N)nc23)[C@@H](C)CN1C(c1ccc(Cl)cc1)c1ncccc1F (single isomer, unassigned) [Example 189] | 100 nM | 1200 nM |  |
